{"source": "patent US20090156657A1", "about": "“ANTI-INFLAMMATORY COMPOSITION” (Ajinomoto Co., Inc., priority 2006, published 2009)", "key": {"[1]": {"tested_on": "IL-1β mRNA", "experiment": "IBD model mouse: IL-1β mRNA in large intestine tissue (realtime PCR)", "type": "in vivo", "settings": "IBD model mice, vs Control group, GAPDH internal standard; FIG. 15", "excerpt": "(§1) At the end of the test described in Example 10, the large intestine (caecum—anus) was cut into about 1 cm pieces from the center to the anus side to give 3 sections in total. One of them was fixed with 10% formalin solution and two were frozen in liquid nitrogen. The large intestine fixed with formalin was embedded in paraffin, and sliced to give transversely sectioned specimens. The specimens were stained by a PAS (Periodic acid Schiff) staining method, and histopathological images were observed. On the other hand, total RNA was extracted from the frozen large intestine tissue with ISOGEN (NIPPON GENE CO., LTD.) Total RNA (2 μg) was subjected to a reverse transcription reaction using a SYBR ExScript™ RT-PCR kit (TaKaRa) and, using this as a template, quantitative realtime PCR was performed using IL-1β, TNF-α and GAPDH. The primers used for the analysis were as follows.\nTemplate DNA (2 μl), SYBR Premix Ex Taq™ (TaKaRa, 10 μl), ROX Reference Dye (0.4 μl), 100 μM forward primer (0.04 μl), 100 μM reverse primer (0.04 μl) and sterile water (7.52 μl) were mixed on ice and, using Applied Biosystems 7900HT Fast realtime PCR system, the mixture was heated at 95° C. for 10 seconds, followed by 40 cycles of 95° C., 5 seconds and 60° C., 34 seconds, whereby the DNA was amplified. Using GAPDH as the internal standard, IL-1β and TNF-α expression levels were evaluated."}, "[2]": {"tested_on": "large intestine tissue of IBD model mice", "experiment": "IBD model mouse: large intestine histopathology (PAS staining)", "type": "in vivo", "settings": "vs Control group, FIG. 14", "excerpt": "as §1"}, "[3]": {"tested_on": "U-937 monocyte cells / HAEC", "experiment": "Monocyte (U-937) adhesion to HAEC cells", "type": "cell-based, human", "settings": "HAEC pre-incubated 5 or 10 μM 24 h, 25 mM glucose 4 h; FIG. 5", "experimental": "HAEC cells proliferated to confluence in a 24 well microplate were pre-incubated with CS and FS (5 or 10 μM each) for 24 hours and stimulated with 25 mM glucose for 4 hours. The cell layer was washed with Hanks solution, and then a suspension (1×10^6/mL, 200 μL) of U-937 monocyte cells (purchased from ATCC) was added, and the mixture was incubated at 37° C. for 30 minutes. After washing again, the cells were fixed with 1% para-formaldehyde and the number of U-937 cells attached onto HAEC was counted under a microscope (20 fields). The experiment was performed 3 times and the results are shown as an average value thereof. An experiment using fluorescence-labeled U-937 cells was also performed. To be specific, U-937 cells were incubated (37° C., 1 hour) in the presence of 10 μM 2′,7′-bis(2-carboxyethyl)-5(6)-carboxyfluorescein acetoxymethylester (BCECF-AM, Molecular Probes) and washed by centrifugation. Fluorescence-labeled U-937 cells (1×10^6/mL) were added to HAEC cells, and the mixture was incubated at 37° C. for 1 hour. The floating U-937 cells were removed, the plate was washed with PBS buffer and treated with 1% Triton X for 2 hours. The fluorescence amount of the attached cells was quantified (Ex. 503 nm, Em. 525 nm) using a fluorescence plate reader (Bio-Rad, Fluoromark)."}, "[4]": {"tested_on": "VCAM-1", "experiment": "VCAM-1 protein expression on HAEC cell membrane (immunostaining)", "type": "cell-based, human", "settings": "0.1-10 μM 24 h, 25 mM glucose 4 h, FIG. 4A", "experimental": "HAEC cells proliferated to confluence in a 96 well microplate were pre-incubated with 0.1-10 μM serotonin derivative for 24 hours, and stimulated with 25 mM glucose for 4 hours. The cell layer was washed with Hanks solution, and then anti-VCAM-1 monoclonal antibody (Becton Dickinson) was added and the cells were incubated at 37° C. for 1 hour. After washing, the cells were incubated with secondary antibody (peroxidase-labeled anti-mouse IgG goat F(ab′)2 fragment; Cappel) for 1 hour. A color development substrate (o-phenylenediamine dihydrochloride) was added and, about 30 minutes later (room temperature), the absorbance (492 nm) of each well was quantified with a microplate reader. The MCP-1 concentration of the medium was quantified with Human MCP-1 Immunoassay Kit (BioSource International)."}, "[5]": {"tested_on": "U-937 cells / HAEC", "experiment": "Migration capability of monocyte (U-937), Transwell system with HAEC", "type": "cell-based, human", "settings": "HAEC pre-incubated 5 or 10 μM 24 h, 25 mM glucose 4 h; FIG. 7", "experimental": "The migration capability of monocyte was measured using the Transwell system (pore size 3 μm; BD Biosciences). HAEC cultured on a transwell placed in a 24 well microplate was pre-incubated with 5 or 10 μM serotonin derivative for 24 hours, and stimulated with 25 mM glucose for 4 hours. 200 μL of U-937 cell suspension (10^6 cells/mL) was added to the transwell and the cells were incubated as-is at 37° C. for 2 hours. The number of cells migrated to the lower chamber of the transwell through the membrane was counted under a microscope (20 fields). The experiment was repeated three times, and the results are shown as an average value thereof. An experiment using fluorescence-labeled U-937 cells was also performed. BCECF-AM-labeled U-937 cells were plated in the upper chamber of the transwell and incubated at 37° C. for 2 hours. The cells migrated to the lower chamber through the membrane were collected in 1 mL of PBS buffer and treated with 1% Triton X for 2 hours. The fluorescence derived from the migrated cells was quantified (Ex. 503 nm, Em. 525 nm) using a fluorescence plate reader (Bio-Rad, Fluoromark)."}, "[6]": {"tested_on": "blood NOx", "experiment": "IBD model mouse: blood NOx concentration", "type": "in vivo", "settings": "IBD model mice, diet 3 weeks, vs Control group; FIG. 13", "experimental": "By the activation of leukocytes in an inflammatory response, a large amount of NO is produced by the cells, and the blood concentration of NOx, a metabolite, increases. It is known that blood NOx concentration becomes one index of inflammatory response in living organisms due to this mechanism (Yuka Ikenoue et al., International Immunopharmacology 5 (2005) 993-1006). The NOx concentration of the blood obtained in Example 10 was measured using an “Nitric Oxide Quantitation Kit (ACTIVE MOTIF)”."}}}
{"smiles": "COc1cc(/C=C/C(=O)NCCc2c[nH]c3ccc(O)cc23)ccc1O", "note": "[FS, N-feruloyl serotonin]", "values": [{"measurement": "mRNA expression level of IL-1β in large intestine tissue", "setting": "[1]", "value": "significant decrease"}, {"measurement": "number of normal goblet cells", "setting": "[2]", "value": "increased number of normal goblet cells"}, {"measurement": "thickening of the large intestine mucosal epithelium", "setting": "[2]", "value": "suppressed thickening"}, {"measurement": "number of U-937 cells attached onto HAEC (cell count)", "setting": "[3]", "value": "decreased the number of attached cells in a serotonin derivative dose-dependent manner"}, {"measurement": "VCAM-1 expression on the cell membrane", "setting": "[4]", "value": "suppressed the induction of their expressions in a dose-dependent manner"}, {"measurement": "number of U-937 cells migrated into subendothelium space (cell count)", "setting": "[5]", "value": "significantly decreased"}, {"measurement": "blood NOx concentration", "setting": "[6]", "value": "tendency toward decrease"}]}
